Results from US6780853B1, “Neuroactive steroids of the androstane and pregnane series” (priority 1995, dated 2004).
pIC50: −log10 of the molar value. Where a name gives a salt, the structure may show the parent alone.

Columns and labels:
[1] = system: metrazol induced convulsions; test: Antimetrazol activity in mice; assay type: in vivo; settings: 10 mg/kg
Method: Experiments were also performed to determine the physiological relevance of neuroactive steroid and GABA receptor interactions by assessing the ability of compounds of the present invention to prevent metrazol induced convulsions in mice. Mice were injected with various doses of the test compounds of the invention, 10 minutes prior to the injection of metrazol. The time to onset of myoclonus (presence of forelimb clonic activity) induced by metrazol was determined by observing each mouse for a period of 30 minutes. In control mice, metrazol (85 mg/kg) will induce convulsion in 95% of the animals.
The anticonvulsant tests are similar to that described above.

[2] = biological target: GABA receptor complex (GRC); test: [35S]TBPS binding in rat cerebral cortex P2 homogenate; settings: for pIC50: concentration to inhibit 50% of control [35S]TBPS binding, 2 nM [35S]TBPS; for IMAX (maximum inhibition): maximum inhibition of [35S]TBPS binding
Description: To those skilled in the art, it is known that the modulation of [^35S]t-butylbicyclophosphorothionate ([^35S]TBPS) binding is a measure of the potency and efficacy of drugs acting at the GRC, which drugs may be of potential therapeutic value in the treatment of stress, anxiety, and seizure disorders (Squires, R. F., et al., Mol, Pharmacol., 23:326 (1983); Lawrence, L. J., et al., Biochem. Biophys. Res. Comm., 123:1130-1137 (1984); Wood, et al., Pharmacol, Exp. Ther., 231:572-576 (1984)). Several experiments were performed previously to determine the nature of the modulation of [^35S]TBPS as affected by neuroactive steroids. […] Furthermore, these compounds have high potency and efficacy at the GRC, with stringent structural requirements for such activity.
The procedures for performing this assay are fully discussed in: (1) Gee, K. W. et al., European Journal of Pharmacology, 136:419-423 (1987)); and (2) Gee, et al., Molecular Pharmacology 30:218 (1986). These procedures were performed as follows:
Brains from male Sprague-Dawley rats were removed immediately following sacrifice and the cerebral cortices dissected over ice. A P2 homogenate was prepared as previously described (Gee, et al., Molecular Pharmacology 30:218 (1986)). Briefly, the cortices were gently homogenized in 032 M sucrose followed by centrifugation at 1000×g for 10 minutes. The supernatant was collected and centrifuged at 9000×g for 20 minutes. The resultant P2 pellet was suspended as a 10% (original wet weight/volume) suspension in 50 mM Na/K phosphate buffer (pH 7.4) 200 mM NaCl to form the homogenate.
One hundred microliter […] aliquots of the P2 homogenate (0.5 milligrams (mg) protein) were incubated with 2 nanomolar (nM) [^35S]TBPS (70-110 curies/millimole; New England Nuclear, Boston, Mass.) in the presence or absence of the naturally occurring steroids or their synthetic derivatives to be tested. The tested compounds were dissolved in dimethylsulfoxide (Baker Chem. Co., Phillipsburg, N.J.) and added to the incubation mixture in 5 μL aliquots. The incubation mixture was brought to a final volume of 1 mL with buffer. Non-specific binding was defined as binding in the presence of […]. The effect and specificity of GABA (Sigma Chem. Co., St. Louis, Mo.) was evaluated by performing all assays in the presence of GABA plus (+)bicuculline (Sigma Chem. Co.). Incubations maintained at 25° C. for 90 minutes (steady state conditions) were terminated by rapid filtration through glass fiber filters (No. 32, Schleicher and Schuell, Keene, N.H.). Filter-bound radioactivity was quantitated by liquid scintillation spectrophotometry. Kinetic data and compound/[^35S]TBPS dose-response curves were analyzed by nonlinear regression using a computerized iterative procedure to obtain rate constants and IC50 (concentration of compound at which half-maximal inhibition of basal [^35S]TBPS binding occurs) values.
Various compounds were screened to determine their potential as modulators of [^35S]TBPS binding in vitro. These assays were performed in accordance with the above discussed procedures. Based on these assays, we have established the structure-activity requirements for their specific interaction at the GRC and their rank order potency and efficacy. Experimental data obtained in this assay for a number of 3α-hydroxypregnan-20-one derivatives is discussed in Gee, K. W. et al., European Journal of Pharmacology, 136:419-423 (1987) and in U.S. Pat. No. 5,232,917. Table 1 provides IC50 and maximum inhibition (IMAX) measurements for numerous compounds, including examples of compounds disclosed and claimed herein. IC50 is defined as concentration of compounds to inhibit 50% of control [^35S]TBPS binding. It is an indication of a compound's in vitro potency. Maximum inhibition is an indication of a compound's in vitro efficacy.

[3] = IP, 50% hpbcd, 10 min before metrazol 85 mg/kg

Structure (SMILES) | % Protected ([1]; PO, 10% hpbcd) [%] | % Protected [1, 3] [%] | pIC50 [2] | IMAX (maximum inhibition) [2] [%]
CC1(C2CCC3C4CCC5CC(O)(C(F)(F)F)CCC5C4CCC32C)OC(C(=O)[O-])C(C(=O)[O-])O1.[K+].[K+] (stereo not drawn) [20,20-[2′,3′-Bis(carboxy)ethylenedioxy]-3α-hydroxy-3β-trifuoromethyl-5β-19-norpregnane, dipotassium salt] | 25 | – | – | –
COC1CCC2C3CCC4CC(O)(CCl)CCC4(C)C3CCC12C (stereo not drawn) [3β-Chloromethyl-3α-hydroxy-17β-methoxy-5α-androstane] | – | 12.5 | 6.44 | 98
COC1CCC2C3CCC4CC(O)(C#CCCO)CCC4(C)C3CCC12C (stereo not drawn) [3α-Hydroxy-3β-(4′-hydroxybutyn-1-yl)-17α-methoxy-5β-androstane] | – | 50 | – | –
COCC1(O)CCC2(C)C(CCC3C2CCC2(C)C(C(=O)CSc4ccc(F)cc4)CCC32)C1 (stereo not drawn) [21-(4′-fluorophenylthio)-3α-hydroxy-3β-methoxymethyl-5α-pregnan-20-one] | – | – | 6.75 | 97
C#C[C@@]1(O)CC[C@@]2(C)[C@H](CC[C@@H]3[C@@H]2CC[C@]2(C)[C@@H](C(=O)CS(=O)(=O)CCCO)CC[C@@H]32)C1 [3β-Ethynyl-3α-hydroxy-21-hydroxypropylsulfonyl-5β-pregnan-20-one] | – | – | 6.71 | 107
CC(=O)c1ccc(C#C[C@@]2(O)CC[C@@]3(C)[C@H](CC[C@@H]4[C@@H]3CC[C@]3(C)[C@@H](C(=O)CSc5ccncc5)CC[C@@H]43)C2)cc1 [3β-(4′-acetylphenyl)ethynyl-3α-hydroxy-21-(pyrid-4ylthio)-5β-pregnan-20-one] | – | – | 7.54 | 94
CC(=O)[C@H]1CC[C@H]2[C@@H]3CCC4=CC(=O)CC[C@]4(C)[C@H]3CC[C@]12C [Progesterone, reference compound] | – | – | 5.28 | 100
CC12CCC(O)CC1CCC1C2CCC2(C)C(C(=O)CS(=O)(=O)O)CCC12 (stereo not drawn) [3α-Hydroxy-21-sulfonic acid-5β-pregnan-20-one 21-sodium salt] | – | – | 6.14 | 62
C#C[C@@]1(O)CC[C@@]2(C)[C@H](CC[C@@H]3[C@@H]2CC[C@]2(C)[C@@H](C(=O)CSCCCO)CC[C@@H]32)C1 [3β-ethynyl-3α-hydroxy-21-hydroxypropylthio-5β-pregnan-20-one] | – | – | 7.03 | 97
C[C@@]12CCC[C@H]1[C@@H]1CC[C@H]3C[C@H](O)CC[C@]3(C)[C@H]1CC2 [3α-Hydroxy-5α-androstane, reference compound] | – | – | 6.31 | 99
CCCOC1CC2(C)C(CCC3C2CCC2(C)C(C(=O)CSc4cc[n+](C)cc4)CCC32)CC1O (stereo not drawn) [3α-Hydroxy-2β-propoxy-21-(pyrid-4-ylthio)-5α-pregnan-20-one N-methyl iodide] | – | – | 6.90 | 101
CCCO[C@H]1C[C@@]2(C)[C@@H](CC[C@@H]3[C@@H]2CC[C@]2(C)[C@@H](C(=O)CSc4ccncc4)CC[C@@H]32)C[C@@H]1O [3α-hydroxy-2β-propoxy-21-(pyrid-4-ylthio)-5α-pregnan-20-one] | – | – | 7.85 | 98
CCCO[C@H]1C[C@@]2(C)[C@@H](CC[C@@H]3[C@@H]2CC[C@]2(C)[C@@H](C(=O)CS(=O)(=O)CCCS(=O)(=O)[O-])CC[C@@H]32)C[C@@H]1O.[Na+] [3α-Hydroxy-2β-propoxy-21-sulfonylpropanesulfonate-5α-pregnan-20-one sodium salt] | – | – | 5.99 | 101
COCC1(O)CCC2(C)C(CCC3C2CCC2(C)C(C(=O)CS(=O)(=O)c4ccc(F)cc4)CCC32)C1 (stereo not drawn) [21-(4′-fluorophenyl)sulfonyl-3α-hydroxy-3β-methoxymethyl-5α-pregnan-20-one] | – | – | 7.31 | 99
CC(C)CCC[C@@H](C)[C@H]1CC[C@H]2[C@@H]3CC=C4C[C@@H](O)CC[C@]4(C)[C@H]3CC[C@]12C [Cholesterol, reference compound] | – | – | – | 0
